From patent US10131652B2, “Pyrimidinyloxy benzene derivatives as herbicides” (E. I. DU PONT DE NEMOURS AND COMPANY, priority 2014, dated 2018)

How the values were obtained:
Assay type in all cases: in vivo
[1] = tested on: blackgrass (Alopecurus myosuroides); assay: Test B postemergence plant response
Outline: (§1)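 Visual injury ratings, 0 = no effect to 100 = complete control, versus untreated controls approximately 10 days after postemergence spraying in greenhouse. Plants were at one- to two-leaf stage, 2 to 10 cm tall, in loam soil/sand blend; a dash denotes no result.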

[2] = tested on: galium (catchweed bedstraw, Galium aparine); assay: Test B postemergence plant response
Outline: as §1

[3] = tested on: chickweed (common chickweed, Stellaria media); assay: Test D postemergence plant response; conditions: for Plant response rating (scale 0 to 100), Chickweed: 16 g ai/ha; for Chickweed plant response rating: 31 g ai/ha, scale 0 to 100 (0 no effect, 100 complete control); for Plant response rating, Chickweed: scale 0 to 100, 0 no effect, 100 complete control
Outline: (§2)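 Visual 0–100 rating vs controls (0 = no effect, 100 = complete control), scored 13–15 d after postemergence spray. Plants 1- to 4-leaf stage (2–18 cm), potted in peat/vermiculite mix, kept in greenhouse.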

[4] = tested on: wild oat (Avena fatua); assay: Test D postemergence plant response; conditions: for Plant response rating (scale 0 to 100), Oat, Wild: 16 g ai/ha; for Plant response rating, Oat, Wild: 125 g ai/ha
Outline: as §2

[5] = tested on: kochia (Kochia scoparia); assay: Test D postemergence plant response; conditions: for Plant response rating (scale 0 to 100), Kochia: 16 g ai/ha; for Kochia plant response rating: 31 g ai/ha, scale 0 to 100 (0 no effect, 100 complete control); for Plant response rating, Kochia: scale 0 to 100, 0 no effect, 100 complete control
Outline: as §2

[6] = tested on: rice (Oryza sativa); assay: Test C flooded paddy test plant response; conditions: Flood, 250 g ai/ha; scale of 0 to 100 where 0 is no effect and 100 is complete control; 13 to 15 days
Outline: (§3)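 Plants grown to the 2-leaf stage; pots flooded to 3 cm above soil, test compounds applied directly to paddy water, depth maintained throughout. Greenhouse for 13 to 15 days, then visual rating versus controls on a 0–100 scale (0 no effect, 100 complete control).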

[7] = tested on: barnyardgrass (Echinochloa crus-galli); assay: Test C flooded paddy test plant response; conditions: Flood, 250 g ai/ha; scale of 0 to 100 where 0 is no effect and 100 is complete control; 13 to 15 days
Outline: as §3

[8] = tested on: ducksalad (Heteranthera limosa); assay: Test C flooded paddy test plant response; conditions: Flood, 250 g ai/ha; scale of 0 to 100 where 0 is no effect and 100 is complete control; 13 to 15 days
Outline: as §3

[9] = tested on: small-flower umbrella sedge (Cyperus difformis); assay: Test C flooded paddy test plant response; conditions: Flood, 250 g ai/ha; scale of 0 to 100 where 0 is no effect and 100 is complete control; 13 to 15 days
Outline: as §3

[10] = tested on: ragweed (common ragweed, Ambrosia elatior); assay: Test B pre-/postemergence plant response
Outline: (§4)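 Visual injury scores on a 0–100 scale (100 = complete control) relative to untreated plants, taken about 10 days post-treatment in greenhouse. Treatments were a directed preemergence soil spray and a postemergence spray at one- to two-leaf stage, using surfactant-containing solvent formulation.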

[11] = tested on: barnyardgrass (Echinochloa crus-galli); assay: Test B pre-/postemergence plant response
Outline: as §4

[12] = tested on: corn (Zea mays); assay: Test B pre-/postemergence plant response
Outline: as §4

[13] = tested on: Italian ryegrass (Lolium multiflorum); assay: Test B pre-/postemergence plant response
Outline: as §4

[14] = tested on: giant foxtail (Setaria faberii); assay: Test B pre-/postemergence plant response
Outline: as §4

[15] = tested on: wheat (Triticum aestivum); assay: Test B pre-/postemergence plant response
Outline: as §4

[16] = tested on: kochia (Kochia scoparia); assay: Test B pre-/postemergence plant response
Outline: as §4

[17] = tested on: pigweed (Amaranthus retroflexus); assay: Test B pre-/postemergence plant response
Outline: as §4

[18] = 125 g ai/ha, postemergence, 0 to 100 scale, 0 no effect, 100 complete control
[19] = Postemergence, 31 g ai/ha, 0 to 100 scale (0 no effect, 100 complete control)
[20] = 31 g ai/ha, scale 0 to 100 (0 no effect, 100 complete control)
[21] = 62 g ai/ha, scale 0 to 100, 0 no effect, 100 complete control
[22] = scale 0 to 100, 0 no effect, 100 complete control
[23] = 31 g ai/ha, Preemergence, 0 to 100 scale where 0 is no effect and 100 is complete control
[24] = Preemergence, 125 g ai/ha, 0 to 100 scale (0 no effect, 100 complete control)

## FC(F)c1cc(-c2ccccc2Oc2ncc(Br)cn2)on1 [Compound 212]
[1]; [18]
  Plant response rating, Blackgrass: 50
[1]; [19]
  Plant response rating, Blackgrass: 10
[2]; [18]
  Plant response rating, Galium: 100
[2]; [19]
  Plant response rating, Galium: 60
[3]
  Plant response rating (scale 0 to 100), Chickweed: 10
  Chickweed plant response rating: 30
[3]; 62 g ai/ha
  Plant response rating, Chickweed: 30
[3]; 125 g ai/ha
  Plant response rating, Chickweed: 80
[4]
  Plant response rating (scale 0 to 100), Oat, Wild: 0
[4]; [20]
  Oat, Wild plant response rating: 0
[4]; [21]
  Oat, Wild plant response rating: 5
[4]; [22]
  Plant response rating, Oat, Wild: 10
[5]
  Plant response rating (scale 0 to 100), Kochia: 90
  Kochia plant response rating: 100
[5]; 62 g ai/ha
  Plant response rating, Kochia: 100
[5]; 125 g ai/ha
  Plant response rating, Kochia: 100
[6]
  Rice plant response rating: 20
[7]
  Barnyardgrass plant response rating: 0
[8]
  Ducksalad plant response rating: 75
[9]
  Sedge, Umbrella plant response rating: 75
[10]; [23]
  Plant response rating, Ragweed: 0
[10]; [18]
  Plant response rating, Ragweed: 60
[10]; [19]
  Plant response rating, Ragweed: 20
[10]; [24]
  Ragweed plant response rating: 40
[11]; [23]
  Plant response rating, Barnyardgrass: 10
[11]; [18]
  Plant response rating, Barnyardgrass: 30
[11]; [19]
  Plant response rating, Barnyardgrass: 0
[11]; [24]
  Barnyardgrass plant response rating: 60
[12]; [18]
  Plant response rating, Corn: 20
[12]; [19]
  Plant response rating, Corn: 10
[13]; [23]
  Plant response rating, Ryegrass, Italian: 0
[13]; [18]
  Plant response rating, Ryegrass, Italian: 20
[13]; [19]
  Plant response rating, Ryegrass, Italian: 0
[13]; [24]
  Ryegrass, Italian plant response rating: 40
[14]; [23]
  Plant response rating, Foxtail, Giant: 60
[14]; [18]
  Plant response rating, Foxtail, Giant: 70
[14]; [19]
  Plant response rating, Foxtail, Giant: 10
[14]; [24]
  Foxtail, Giant plant response rating: 100
[15]; [18]
  Plant response rating, Wheat: 10
[15]; [19]
  Plant response rating, Wheat: 0
[16]; [23]
  Plant response rating, Kochia: 40
[16]; [18]
  Plant response rating, Kochia: 100
[16]; [19]
  Plant response rating, Kochia: 90
[16]; [24]
  Kochia plant response rating: 90
[17]; [23]
  Plant response rating, Pigweed: 100
[17]; [18]
  Plant response rating, Pigweed: 100
[17]; [19]
  Plant response rating, Pigweed: 90
[17]; [24]
  Pigweed plant response rating: 100

## Cc1cc(-c2c(F)cccc2Oc2ncc(Cl)cn2)on1 [Compound 229]
[1]; [18]
  Plant response rating, Blackgrass: 80
[1]; [19]
  Plant response rating, Blackgrass: 30
[2]; [18]
  Plant response rating, Galium: 100
[2]; [19]
  Plant response rating, Galium: 80
[3]
  Plant response rating (scale 0 to 100), Chickweed: 60
  Chickweed plant response rating: 60
[3]; 62 g ai/ha
  Plant response rating, Chickweed: 80
[3]; 125 g ai/ha
  Plant response rating, Chickweed: 85
[4]
  Plant response rating (scale 0 to 100), Oat, Wild: 0
[4]; [20]
  Oat, Wild plant response rating: 10
[4]; [21]
  Oat, Wild plant response rating: 10
[4]; [22]
  Plant response rating, Oat, Wild: 10
[5]
  Plant response rating (scale 0 to 100), Kochia: 85
  Kochia plant response rating: 90
[5]; 62 g ai/ha
  Plant response rating, Kochia: 98
[5]; 125 g ai/ha
  Plant response rating, Kochia: 98
[6]
  Rice plant response rating: 15
[7]
  Barnyardgrass plant response rating: 55
[8]
  Ducksalad plant response rating: 90
[9]
  Sedge, Umbrella plant response rating: 90
[10]; [23]
  Plant response rating, Ragweed: 70
[10]; [18]
  Plant response rating, Ragweed: 100
[10]; [19]
  Plant response rating, Ragweed: 100
[10]; [24]
  Ragweed plant response rating: 90
[11]; [23]
  Plant response rating, Barnyardgrass: 50
[11]; [18]
  Plant response rating, Barnyardgrass: 70
[11]; [19]
  Plant response rating, Barnyardgrass: 20
[11]; [24]
  Barnyardgrass plant response rating: 90
[12]; [18]
  Plant response rating, Corn: 30
[12]; [19]
  Plant response rating, Corn: 0
[13]; [23]
  Plant response rating, Ryegrass, Italian: 0
[13]; [18]
  Plant response rating, Ryegrass, Italian: 20
[13]; [19]
  Plant response rating, Ryegrass, Italian: 0
[13]; [24]
  Ryegrass, Italian plant response rating: 30
[14]; [23]
  Plant response rating, Foxtail, Giant: 90
[14]; [18]
  Plant response rating, Foxtail, Giant: 80
[14]; [19]
  Plant response rating, Foxtail, Giant: 50
[14]; [24]
  Foxtail, Giant plant response rating: 90
[15]; [18]
  Plant response rating, Wheat: 40
[15]; [19]
  Plant response rating, Wheat: 0
[16]; [23]
  Plant response rating, Kochia: 80
[16]; [18]
  Plant response rating, Kochia: 100
[16]; [19]
  Plant response rating, Kochia: 90
[16]; [24]
  Kochia plant response rating: 100
[17]; [23]
  Plant response rating, Pigweed: 100
[17]; [18]
  Plant response rating, Pigweed: 100
[17]; [19]
  Plant response rating, Pigweed: 70
[17]; [24]
  Pigweed plant response rating: 100

## FCc1cc(-c2ccccc2Oc2ncc(Cl)cn2)on1 [Compound 224]
[1]; [18]
  Plant response rating, Blackgrass: 70
[1]; [19]
  Plant response rating, Blackgrass: 40
[2]; [18]
  Plant response rating, Galium: 100
[2]; [19]
  Plant response rating, Galium: 80
[3]
  Plant response rating (scale 0 to 100), Chickweed: 10
  Chickweed plant response rating: 15
[3]; 62 g ai/ha
  Plant response rating, Chickweed: 40
[3]; 125 g ai/ha
  Plant response rating, Chickweed: 80
[4]
  Plant response rating (scale 0 to 100), Oat, Wild: 0
[4]; [20]
  Oat, Wild plant response rating: 0
[4]; [21]
  Oat, Wild plant response rating: 0
[4]; [22]
  Plant response rating, Oat, Wild: 0
[5]
  Plant response rating (scale 0 to 100), Kochia: 35
  Kochia plant response rating: 70
[5]; 62 g ai/ha
  Plant response rating, Kochia: 95
[5]; 125 g ai/ha
  Plant response rating, Kochia: 100
[6]
  Rice plant response rating: 0
[7]
  Barnyardgrass plant response rating: 0
[8]
  Ducksalad plant response rating: 70
[9]
  Sedge, Umbrella plant response rating: 65
[10]; [18]
  Plant response rating, Ragweed: 100
[10]; [19]
  Plant response rating, Ragweed: 50
[11]; [23]
  Plant response rating, Barnyardgrass: 10
[11]; [18]
  Plant response rating, Barnyardgrass: 50
[11]; [19]
  Plant response rating, Barnyardgrass: 30
[11]; [24]
  Barnyardgrass plant response rating: 50
[12]; [18]
  Plant response rating, Corn: 20
[12]; [19]
  Plant response rating, Corn: 0
[13]; [23]
  Plant response rating, Ryegrass, Italian: 0
[13]; [18]
  Plant response rating, Ryegrass, Italian: 0
[13]; [19]
  Plant response rating, Ryegrass, Italian: 0
[13]; [24]
  Ryegrass, Italian plant response rating: 0
[14]; [23]
  Plant response rating, Foxtail, Giant: 40
[14]; [18]
  Plant response rating, Foxtail, Giant: 50
[14]; [19]
  Plant response rating, Foxtail, Giant: 20
[14]; [24]
  Foxtail, Giant plant response rating: 90
[15]; [18]
  Plant response rating, Wheat: 0
[15]; [19]
  Plant response rating, Wheat: 0
[16]; [23]
  Plant response rating, Kochia: 60
[16]; [18]
  Plant response rating, Kochia: 100
[16]; [19]
  Plant response rating, Kochia: 70
[16]; [24]
  Kochia plant response rating: 90
[17]; [23]
  Plant response rating, Pigweed: 90
[17]; [18]
  Plant response rating, Pigweed: 100
[17]; [19]
  Plant response rating, Pigweed: 70
[17]; [24]
  Pigweed plant response rating: 100
